# Experiments:
# [1] = test system: K562; experiment: Cytotoxicity on K562 cancer cell line; type: cell-based; conditions: Homo sapiens; K562 chronic myelogenous leukemia; 96 h; 0.01-100 μM
# Experimental: The effect of the compounds described herein on tumor cells was determined by the assay described by Latham et al., Oncogene 12:827-837 (1996). Tumor cells K562 (chronic myelogenous leukemia; leukemia cell line +ve for Bcr-Abl) or DU145 (prostate cancer) were plated in 12-well dishes at a cell density of 2.5×10^4 cells per well. The plated cells were treated 24 h. later with a DMSO solution of a compound as described herein at multiple concentrations ranging from 0.01 μM to 100 μM. The plates were examined 96 h. later under an inverted microscope, Olympus CK-2 using a 10× objective, and compound activity was noted by physical observation. When necessary, the total number of viable cells was determined by trypsinizing the wells and counting the number of viable cells, as determined by trypan blue exclusion, using a hemacytometer.
# [2] = test system: HL-60/MX2; experiment: Cytotoxicity assay, dose response end point; type: cell-based; conditions: Homo sapiens, HL60/MX2; HL-60/MX2, promyelocytic leukaemia; 96 h
# Experimental: (§1) The following tumor cell lines were tested using a dose response end point assay system with compound (8h). The cells were grown in either DMEM or RPMI supplemented with 10% fetal bovine serum and 1 unit/mL Penicillin-Streptomycin solution. The tumor cells were plated into 6-well dishes at a cell density of 1.0×10^5 cells/mL/well and the test compound was added 24 h. later at various concentrations. Cell counts were determined from duplicate wells after 96 h. of treatment. The total number of viable cells was determined by trypan blue exclusion.
# [3] = test system: CEM/C2; experiment: Cytotoxicity assay, dose response end point; type: cell-based; conditions: Homo sapiens; CEM/C2, T-cell leukemia; 96 h
# Experimental: as §1
# [4] = test system: MES-SA/DX5; experiment: Cytotoxicity assay, dose response end point; type: cell-based; conditions: Homo sapiens; MES-SA/DX5, Uterine sarcoma; 96 h
# Experimental: as §1
# [5] = test system: HPAF-II; experiment: Cytotoxicity assay, dose response end point; type: cell-based; conditions: Homo sapiens, pancreatic adenocarcinoma, 96 h
# Experimental: as §1
# [6] = test system: MOLT-4; experiment: Cytotoxicity assay, dose response end point; type: cell-based; conditions: Homo sapiens; MOLT-4, acute lymphoblastic leukemia; 96 h
# Experimental: as §1
# [7] = test system: RAJI; experiment: Cytotoxicity assay, dose response end point; type: cell-based; conditions: Homo sapiens, Burkitt's lymphoma, 96 h
# Experimental: as §1
# [8] = test system: HFL-1; experiment: Cytotoxicity assay, dose response end point; type: cell-based; conditions: Homo sapiens, HFL1; HFL-1, fetal lung fibroblast; 96 h
# Experimental: as §1
# [9] = test system: BXPC-3; experiment: Cytotoxicity assay, dose response end point; type: cell-based; conditions: Homo sapiens; BXPC-3, pancreatic adenocarcinoma; 96 h
# Experimental: as §1
# [10] = test system: ASPC-1; experiment: Cytotoxicity assay, dose response end point; type: cell-based; conditions: Homo sapiens, ASPC1; ASPC-1, pancreatic adenocarcinoma; 96 h
# Experimental: as §1
# [11] = test system: A431; experiment: Cytotoxicity assay, dose response end point; type: cell-based; conditions: Homo sapiens, A-431; A431, epidermoid carcinoma; 96 h
# Experimental: as §1
# [12] = test system: PANC 10.05; experiment: Cytotoxicity assay, dose response end point; type: cell-based; conditions: Homo sapiens, Panc1005; PANC 10.05, pancreatic adenocarcinoma; 96 h
# Experimental: as §1
# [13] = test system: SU.86.86; experiment: Cytotoxicity assay, dose response end point; type: cell-based; conditions: Homo sapiens; SU.86.86, pancreatic ductal carcinoma; 96 h
# Experimental: as §1
# [14] = test system: Nalmalwa; experiment: Cytotoxicity assay, dose response end point; type: cell-based; conditions: Burkitt's lymphoma, 96 h
# Experimental: as §1
# [15] = test system: DU145; experiment: Cytotoxicity assay, dose response end point; type: cell-based; conditions: Homo sapiens, DU-145; DU145, prostate carcinoma; 96 h
# Experimental: as §1
# [16] = test system: HL-60; experiment: Cytotoxicity assay, dose response end point; type: cell-based; conditions: Homo sapiens; HL-60, promyelocytic leukaemia; 96 h
# Experimental: as §1
# [17] = test system: HCT-15; experiment: Cytotoxicity assay, dose response end point; type: cell-based; conditions: Homo sapiens; HCT-15, Dukes' type C colorectal adenocarcinoma; 96 h
# Experimental: as §1
# [18] = test system: HT-29; experiment: Cytotoxicity assay, dose response end point; type: cell-based; conditions: Homo sapiens; HT-29, colonic adenocarcinoma; 96 h
# Experimental: as §1
# [19] = test system: PANC 03.27; experiment: Cytotoxicity assay, dose response end point; type: cell-based; conditions: Homo sapiens, PANC-03-27; PANC 03.27, Pancreatic adenocarcinoma; 96 h
# Experimental: as §1
# [20] = test system: CAPAN-1; experiment: Cytotoxicity assay, dose response end point; type: cell-based; conditions: Homo sapiens; CAPAN-1, pancreatic ductal adenocarcinoma; 96 h
# Experimental: as §1
# [21] = target: T1, ABL1 (G250E) (Homo sapiens, UniProt P00519, G250E); experiment: Inhibition of ABL mutants, kinase assay; type: biochemical; conditions: 10 μM ATP; 5-dose IC50 mode
# T1 construct: purchased Reaction Biology Corporation
# Experimental: (§2) Kinase assays were performed at Reaction Biology Corporation. To a freshly prepared buffer solution was added the target kinase at a concentration of […]. The contents were mixed gently, and then compound (8h) dissolved in DMSO was added to the reaction mixture in the appropriate concentration. The mixture was incubated at room temperature for 30 min. prior to addition of ATP to initiate the reaction. Compound (8h) was tested in a 5-dose IC50 mode with 10-fold serial dilutions starting at 10 μM. Staurosporine was used as a control compound in a 10-dose IC50 mode with 3-fold serial dilutions starting at 20 μM. Reaction was carried out at 10 μM ATP concentration.
# [22] = target: T2, ABL1 (E255K) (Homo sapiens, UniProt P00519, E255K); experiment: Inhibition of ABL mutants, kinase assay; type: biochemical; conditions: 10 μM ATP; 5-dose IC50 mode
# T2 construct: purchased Reaction Biology Corporation
# Experimental: as §2
# [23] = target: T3, ABL1 (Y253F) (Homo sapiens, UniProt P00519, Y253F); experiment: Inhibition of ABL mutants, kinase assay; type: biochemical; conditions: 10 μM ATP; 5-dose IC50 mode
# T3 construct: purchased Reaction Biology Corporation
# Experimental: as §2
# [24] = target: T4, ABL1 (Q252H) (Homo sapiens, UniProt P00519, Q252H); experiment: Inhibition of ABL mutants, kinase assay; type: biochemical; conditions: 10 μM ATP; 5-dose IC50 mode
# T4 construct: purchased Reaction Biology Corporation
# Experimental: as §2
# [25] = target: T5, ABL2/ARG (Homo sapiens, UniProt P42684); experiment: Inhibition of ABL mutants, kinase assay; type: biochemical; conditions: 10 μM ATP; 5-dose IC50 mode
# T5 construct: purchased Reaction Biology Corporation
# T5 sequence (P42684 whole entry): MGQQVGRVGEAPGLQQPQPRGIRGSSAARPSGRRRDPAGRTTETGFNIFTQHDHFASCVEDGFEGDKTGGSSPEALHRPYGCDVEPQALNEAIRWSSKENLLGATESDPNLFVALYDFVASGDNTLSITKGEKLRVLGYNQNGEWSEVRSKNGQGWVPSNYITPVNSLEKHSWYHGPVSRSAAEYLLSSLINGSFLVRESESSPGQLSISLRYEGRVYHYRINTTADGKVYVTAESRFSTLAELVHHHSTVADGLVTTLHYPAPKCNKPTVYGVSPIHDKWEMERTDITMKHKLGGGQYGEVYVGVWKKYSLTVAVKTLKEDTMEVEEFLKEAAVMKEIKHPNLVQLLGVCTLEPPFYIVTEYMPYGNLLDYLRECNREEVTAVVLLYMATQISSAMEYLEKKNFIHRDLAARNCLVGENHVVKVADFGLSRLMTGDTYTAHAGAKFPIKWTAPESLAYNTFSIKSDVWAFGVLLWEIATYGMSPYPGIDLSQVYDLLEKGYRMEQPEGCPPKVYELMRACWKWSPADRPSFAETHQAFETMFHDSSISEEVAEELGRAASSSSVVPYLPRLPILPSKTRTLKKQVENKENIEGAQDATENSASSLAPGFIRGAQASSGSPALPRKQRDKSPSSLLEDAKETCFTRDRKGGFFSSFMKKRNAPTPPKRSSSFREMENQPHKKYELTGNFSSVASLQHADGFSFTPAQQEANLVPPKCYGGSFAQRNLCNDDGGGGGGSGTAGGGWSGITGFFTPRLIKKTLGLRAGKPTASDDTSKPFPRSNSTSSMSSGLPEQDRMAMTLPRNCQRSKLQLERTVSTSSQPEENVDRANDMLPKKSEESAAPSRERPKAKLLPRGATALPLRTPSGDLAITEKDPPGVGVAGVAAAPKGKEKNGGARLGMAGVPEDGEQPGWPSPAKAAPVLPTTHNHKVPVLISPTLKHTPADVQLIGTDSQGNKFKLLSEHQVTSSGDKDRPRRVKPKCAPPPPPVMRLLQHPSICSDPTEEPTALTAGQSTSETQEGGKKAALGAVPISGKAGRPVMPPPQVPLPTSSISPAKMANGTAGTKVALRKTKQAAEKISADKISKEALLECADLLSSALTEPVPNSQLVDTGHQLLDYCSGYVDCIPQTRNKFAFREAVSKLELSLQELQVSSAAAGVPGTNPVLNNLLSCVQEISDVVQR
# Experimental: as §2
# [26] = target: T6, ABL1 (H396P) (Homo sapiens, UniProt P00519, H396P); experiment: Inhibition of ABL mutants, kinase assay; type: biochemical; conditions: 10 μM ATP; 5-dose IC50 mode
# T6 construct: purchased Reaction Biology Corporation
# Experimental: as §2
# [27] = target: T7, ABL1 (M351T) (Homo sapiens, UniProt P00519, M351T); experiment: Inhibition of ABL mutants, kinase assay; type: biochemical; conditions: 10 μM ATP; 5-dose IC50 mode
# T7 construct: purchased Reaction Biology Corporation
# Experimental: as §2
# [28] = target: T8, ABL1 (T315I) (Homo sapiens, UniProt P00519, T315I); experiment: Inhibition of ABL mutants, kinase assay; type: biochemical; conditions: 10 μM ATP; 5-dose IC50 mode
# T8 construct: purchased Reaction Biology Corporation
# Experimental: as §2
smiles,measurement,setting,value
"CN1CCN(c2ccc(Nc3ncc(/C=C/C#N)c(NC4CCCC4)n3)cc2)CC1 [Compound 8h, 3-{4-Cyclopentylamino-2-[4-(4-methylpiperazin-1-yl)phenylamino]pyrimidin-5-yl}acrylonitrile]",IC50,[1],< 1 µM
same,GI50,[2],0.25 µM
same,GI50,[3],1.5 µM
same,GI50,[4],< 0.02 µM
same,GI50,[5],5 µM
same,GI50,[6],0.1 µM
same,GI50,[7],< 0.02 µM
same,GI50,[8],0.1 µM
same,GI50,[9],0.1 µM
same,GI50,[10],> 5 µM
same,GI50,[11],0.1 µM
same,GI50,[12],> 5 µM
same,GI50,[13],5 µM
same,GI50,[14],0.2 µM
same,GI50,[15],< 0.5 µM
same,GI50,[16],0.5 µM
same,GI50,[17],0.03 µM
same,GI50,[18],0.05 µM
same,GI50,[19],3 µM
same,GI50,[20],0.1 µM
same,IC50,[21],< 0.1 µM
same,IC50,[22],< 0.1 µM
same,IC50,[23],< 0.1 µM
same,IC50,[24],< 0.1 µM
same,IC50,[25],< 0.1 µM
same,IC50,[26],< 0.1 µM
same,IC50,[27],< 0.1 µM
same,IC50,[28],< 0.1 µM

# Source: patent US9815847B2 (Icahn School of Medicine at Mount Sinai, priority 2013, dated 2017)
